Data taken from patent US20190247376A1, “NICOTINIC ACETYLCHOLINE RECEPTOR AGONIST ATTENUATES ILC2-DEPENDENT AIRWAY HYPERREACTIVITY” (University of Southern California, priority 2016, published 2019).

Tested on: lung ILC2s
Assay: In vitro stimulation of murine lung ILC2s, IL-5 and IL-13 by ELISA, viability by 7-AAD
Format: cell-based, mouse
Protocol: FIGS. 2A-2C: α7nAChR agonist suppresses IL-5 and IL-13 production from ILC2s in vitro. BALB/cByJ mice were intranasally challenged with recombinant mouse IL-33 on days 1-3. On day 4 lung ILC2s were isolated and re-stimulated with rIL-33, rIL-2 and rIL-7 with or without α7nAChR agonist (2.5, 10 and 50 μg mL^−1) for 24 hours (FIG. 2A) or 48 hours (FIG. 2B). The levels of IL-5 and IL-13 were measured by ELISA. The viability of cultured ILC2s were assessed by staining with 7-AAD. (FIG. 2C) BALB/cByJ mice were intranasally challenged with recombinant mouse IL-33 on days 1-3, with or without α7nAChR agonist administration. On day 4 lung ILC2s were isolated and the number of IL-5^+ and IL-13^+ cells per 40×10^4 ILC2s were quantified. Values are expressed as the mean±SEM of five experiments (n=5; Student's t test *, p<0.05; **p<0.01).
FIG. 10: α7nAChR agonist suppresses cytokine production in ILC2s. Lung ILC2s were sorted from naïve BALB/cByJ mice and cultured with rm-IL-25 (10 ng mL−1) in the presence or absence of α7nAChR (10 μg mL−1) agonist for 24 hours. The levels of IL-5 and IL-13 were measured by ELISA. Data are representative of at least two independent experiments and are presented as means±SEM (n=4; Student's t test *, p<0.05).
Nicotine is known as a major constituent of cigarette smoke, which causes impairment of lung function and exacerbation of asthma. […] To address this question quantitatively, pulmonary ILC2s were isolated and cultured with increasing doses (2.5, 10 and 50 μg mL^−1) of α7nAChR agonist in the presence of rm-IL-33, rm-IL-2 and rm-IL-7. […] To verify that the actions of the agonist were not due to a reduction in the number of ILC2s, Applicants administered IL-33 to mice in vivo with or without agonist treatment, and then quantified the number of IL-5^+ and IL-13^+ ILC2s within a determined number of ILC2s (FIG. 2C). […]
Murine ILC2s were isolated from BALB/cByJ mice to >95% purity using the FACSARIA III cell sorter. […] Levels of cytokines were measured by ELISA (eBioscience), according to the manufacturer's instructions.

**Q.** Which results are given for `COc1ccc(/C=C2\CCCN=C2c2cccnc2)c(OC)c1` [GTS-21, 3-[(3E)-3-[(2,4-dimethoxyphenyl)methylidene]-5,6-dihydro-4H-pyridin-2-yl]pyridine]?
**A.** viability of cultured ILC2s (7-AAD) (agonist 2.5, 10 and 50 μg mL−1, 24 or 48 hours): independent of cell viability except at the highest tested dose; IL-25-induced cytokine secretion (IL-5 and IL-13) (rm-IL-25 10 ng mL−1, agonist 10 μg mL−1, 24 hours): susceptible to suppression; IL-5 and IL-13 production from ILC2s (ELISA) (rm-IL-33, rm-IL-2, rm-IL-7, agonist 2.5, 10 and 50 μg mL−1, 24 or 48 hours): dose-dependent anti-inflammatory effects
